# Measured values published in patent US4014883A, “Indoloquinolines, intermediates and processes” (Hoffmann-La Roche Inc., priority 1975, dated 1977).
# Key:
# [1] = acute LD50 in mice; conditions: mouse, in vivo
# [2] = tested on: Sarcoma 180 (S-180); experiment: inhibition of growth of transplantable Sarcoma 180 (S-180) tumors, C/T ratio; assay type: in vivo; conditions: S-180 in mice, once daily for 8 days, ratio greater than 2 = active
smiles,measurement,setting,value
"CN(C)CCn1c(=O)c2[nH]c3ccc(Cl)cc3c2c2ccccc21 [10-chloro-5-(2-dimethylaminoethyl)-7H-indolo[2,3-c]quinolin-6(5H)-one]",LD50,[1]; ip,> 2000 mg/kg
same,LD50,[1]; po,> 4000 mg/kg
same,C/T ratio (average tumor weight of untreated controls / treated),[2]; 100 mg/kg i.p.,3.50
same,C/T ratio (average tumor weight of untreated controls / treated),[2]; 100 mg/kg orally,3.05
